# According to patent US6861524B2, “Acyl and sulfonyl derivatives of 6,9-disubstituted 2-(trans-1,4-diaminocyclohexyl)-purines and their use as antiproliferative agents” (Aventis Pharmaceuticals Inc., priority 2000, dated 2005):
# Counter-ions that a name gives are not always drawn. Like-named read-outs stand apart in the source and are kept apart here.
# What was measured:
# cdk4/cyclin D1 = cdk4/cyclin D1 (Homo sapiens, UniProt P11802); assay: Cyclin-dependent kinase assay, cdk4/cyclin D1 (GST-pRb substrate); assay type: biochemical; details: inhibition of cyclin D1/CDK 4 enzyme activity
# cdk4/cyclin D1, sequence (P11802 whole entry): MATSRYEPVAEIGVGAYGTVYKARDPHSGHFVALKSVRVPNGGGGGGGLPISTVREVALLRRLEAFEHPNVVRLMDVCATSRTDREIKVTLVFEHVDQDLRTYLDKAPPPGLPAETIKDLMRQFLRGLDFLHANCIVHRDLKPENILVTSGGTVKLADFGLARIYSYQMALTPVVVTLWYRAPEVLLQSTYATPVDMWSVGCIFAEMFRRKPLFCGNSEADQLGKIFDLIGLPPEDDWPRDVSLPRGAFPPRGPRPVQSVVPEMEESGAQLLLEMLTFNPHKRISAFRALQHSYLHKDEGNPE
# cdk4/cyclin D1, sequence (P24385 whole entry partner): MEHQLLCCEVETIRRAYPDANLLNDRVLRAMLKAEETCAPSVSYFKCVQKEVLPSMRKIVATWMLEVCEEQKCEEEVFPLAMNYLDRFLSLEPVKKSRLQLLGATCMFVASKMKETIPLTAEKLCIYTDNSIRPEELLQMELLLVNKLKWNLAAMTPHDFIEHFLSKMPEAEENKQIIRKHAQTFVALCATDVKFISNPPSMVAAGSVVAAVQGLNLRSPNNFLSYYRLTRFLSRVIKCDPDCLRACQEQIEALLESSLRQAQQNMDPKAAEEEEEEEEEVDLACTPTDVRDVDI
# cdk1/cyclin B = cdk1/cyclin B (Homo sapiens, UniProt P06493); assay: Cyclin-dependent kinase assay, cdk1/cyclin B (Histone H1 substrate)
# cdk1/cyclin B, sequence (P06493 whole entry): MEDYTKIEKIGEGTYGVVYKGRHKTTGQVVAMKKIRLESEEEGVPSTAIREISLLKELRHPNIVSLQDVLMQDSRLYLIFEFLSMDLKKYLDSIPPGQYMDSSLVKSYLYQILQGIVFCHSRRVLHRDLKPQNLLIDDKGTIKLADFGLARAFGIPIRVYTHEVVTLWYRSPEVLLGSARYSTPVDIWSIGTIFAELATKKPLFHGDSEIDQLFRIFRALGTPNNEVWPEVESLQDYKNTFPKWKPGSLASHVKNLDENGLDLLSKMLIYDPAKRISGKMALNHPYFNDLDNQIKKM
# cdk1/cyclin B, sequence (P14635 whole entry partner): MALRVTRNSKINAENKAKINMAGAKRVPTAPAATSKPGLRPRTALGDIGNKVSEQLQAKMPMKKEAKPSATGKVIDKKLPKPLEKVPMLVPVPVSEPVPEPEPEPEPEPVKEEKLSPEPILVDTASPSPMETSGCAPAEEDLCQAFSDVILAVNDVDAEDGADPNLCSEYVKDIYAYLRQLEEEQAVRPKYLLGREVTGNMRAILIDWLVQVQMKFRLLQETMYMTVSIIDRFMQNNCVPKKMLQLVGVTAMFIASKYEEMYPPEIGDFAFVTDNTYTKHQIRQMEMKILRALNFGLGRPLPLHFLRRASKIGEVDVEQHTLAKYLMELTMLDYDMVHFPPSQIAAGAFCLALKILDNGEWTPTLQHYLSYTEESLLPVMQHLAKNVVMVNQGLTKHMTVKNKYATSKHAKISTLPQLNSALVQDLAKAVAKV
# Method: (§7) The IC50 values for cdk1/cyclin B, cdk2/cyclin E, and cdk4/cyclin D1 inhibition are determined using the following methods:
# The cdk1 sequence (accession number Y00272) is amplified by PCR and cloned into the BamHI and SalI sites of pFASTBAC1 (Life Technologies).
# The cyclin B1 sequence (accession number M25753) is amplified by PCR and cloned into the BamHI and SalI sites of pFASTBAC1 (Life Technologies).
# (§8) The cDNA for each of the cyclin-dependent kinases (CDK) and the corresponding cyclins are cloned into the baculovirus expression vector, pFASTBAC1 (Life Technologies). The sequences of each of the constructs are confirmed by automated fluorescent DNA sequencing according to the manufacture's protocol (Perkin Elmer/Applied Biosystems Inc).
# (§9) The insect cell (Sf9) expression is optimized for each of the CDK/cyclin pairs according to the manufacturer's protocols (Life Technologies).
# (§10) The viruses are added to the cells and the culture is incubated at 27° C. for the desired time. The cells are harvested by centrifugation at 3000 rpm for 10 minutes. The cells are snap frozen on dry ice and stored at −80° C.
# (§11) Cell extracts are made following a standard procedure. The cell pellet is resuspended in lysis buffer (50 mM HEPES, pH 8.0, 10 mM MgCl2, 1 mM DTT, 2.5 mM EGTA, 1 mM EDTA, 10 mM β-glycerophosphate, 1 mM sodium vanadate, 1 mM sodium fluoride, 1×Protease inhibitor cocktail). The cells are lysed using the microfluidizer (Microfluidics) for 20 minutes. Cell debris is removed by centrifugation at 100,000×g. The cell extracts are aliquoted in 1 ml aliquots, frozen on dry ice, and stored at −80° C.
# The kinase reactions are performed following a standard procedure. The enzyme and inhibitor are diluted in kinase buffer (50 mM HEPES, pH 8.0, 10 mM MgCl2, 2.5 mM EGTA, 10 mM β-glycerophosphate, 1 mM sodium vanadate, 1 mM sodium fluoride, and 1 mM DTT) and pre-incubated for 30 minutes. […] The cdk1 enzyme activity is assayed using Histone H1 (Sigma) in the presence of 10 μM ATP for 30 min at room temperature. The reactions are terminated by the addition of 50 μL of 10 mM cold ATP to stop the reactions. The reactions are transferred to a pre-soaked 96-well multi-screen plate containing 30 μL of 100% TCA per well. After incubation for one hour at room temperature, the plates are washed twice with 200 μl of 20% TCA, followed by 200 μl of 10% TCA and finally with 200 μl of 5% TCA. After drying the plates at room temperature, the filter plates are placed in adapter plates (Packard) and 40 μl of Microscint-O® (Packard) is added to each well. Top Seal A film is used to cover the plates before counting in a Top Count Scintillation Counter.
# The % remained activity of the indicated Cdk/cyclin kinase complex in the presence of inhibitor is calculated by the ratio of cpm in the presence of inhibitor to cpm in the absence of inhibitor (% Activity=vi/vo×100%).
# [1] = Plasma pharmacokinetics in mice after single intravenous cassette doses; details: for Mean Conc. in plasma: mice
# Method: Male mice are given single intravenous cassette doses of CDK inhibitor compounds.
# A single intravenous cassette dose (18 or 15 mg/kg free base) is administered. For each compound, this is equivalent to a dose of approx. 3 mg/kg free base. […] The dose is administered at a volume of 10 ml/kg (total volume of approximately 0.25 ml/animal).
# Male mice (Hsd:ICR (CD-1® SD®), Harlan), each weighing approximately 20-30 g at the start of the study. […] Water is available ad libitum throughout the study.
# A single cassette dose of 5-6 compounds is administered by bolus injection into the tail vein over a 10-15-second period. […] Whole blood (approximately 0.6 ml/sample) is obtained by cardiac puncture and transferred to 3 ml glass tubes containing 45 U sodium heparin.
# Sample Processing: Plasma: Whole blood is centrifuged at approximately 3,200 rpm for 10 min at approximately 5° C. and the plasma (approx. 0.3 ml/sample) is transferred to chilled plastic vials and stored at approx. −70° C. until bioanalysis.
# Sample Analysis: Concentrations of each test article in plasma are quantitated by a non-validated method based on LC/MS using the following protocol.
# Samples are removed from the freezer, allowed to thaw at room temperature, and vortexed to insure complete homogenization prior to sample manipulation. Samples are then prepared according to the following scheme: • 1. transfer 48 μL of plasma (blank mouse sample) into a 12×75 mm test tube. • 2. add 12 μL of working standard to the blank plasma for standard curve preparation. • 3. […] Inject 25 μL on LC/MS. Chromatographic Conditions:
# Data Analysis: Concentrations of Compounds in plasma of individual animals are determined by bioanalytics. […] Statistical analyses are limited to simple expressions of variation (mean and standard deviation). The plasma AUC (area-under-curve) is determined by the linear trapezoidal rule. […] All PK parameters are determined by noncompartmental methods using WinNonlin version 3.0 (Pharsight Corp).
# The following information is based on a graph of the semi-log of the plasma concentration in ng/ml versus collection time in hours. • “Cmax” represents the maximum plasma concentration. • “t1/2” represents the half-life of the compound. • “AUC0-∞” represents the calculated area under the curve. • “AUC % Extrap(obs.)” represents the extrapolated area under the curve. • “Cls” is the clearance rate.
# HL-60 human leukemia = HL-60 human leukemia xenograft in nude mice; assay type: in vivo; details: Table 5; 1 mg/kg ip q1d 5x/wk; control 8341 ± 5355
# Method: Antitumor efficacy is assessed using two subcutaneous human tumor xenograft models. The studies are performed using conventional assay techniques. Briefly, HL-60 (leukemia, 5×10^5 cells) and PC-3 (prostate, 5×10^6 cells) tumor cells are injected subcutaneously into nude mice (Cr1-CD1-Br-nu, Charles River Laboratory, Wilmington, Mass.). Dosing with compounds began when tumors reached 50 to 100 mm^3. The dose route/schedule for the test compounds is ip/q1d (5×/wk). The test doses are set based on the maximum tolerated dose (MTD). […] The test doses for the efficacy studies are set at ⅓rd the MTD (low dose) and the MTD (high dose). The results are shown in Tables 4 and 5 (HL-60, leukemia) (PC-3, prostate cancer). The length of the treatment phase is dependent on the tumor growth rate for the two models. This treatment phase is typically about 3 weeks for the HL-60 model and about 5 weeks for the PC-3 model. […] Dosing with flavopiridol is for the same time frame as for the experimental compounds in both xenograft models. Tumor volume (twice weekly) and body weights (once weekly) are monitored throughout the course of the treatment phase of the experiment. Tumor sizes are measured by external caliper measurements of protruding tumor. Volumes are calculated using the following formula: volume=½ (a×b2), where b is the smaller of two perpendicular diameters.
# [2] = Red blood cell binding (RBC to plasma ratio), human whole blood; assay type: in vitro ADME; details: 30 minutes at 37° C., nominal 500 ng/ml
# Method: (§1) Compounds, including one positive control, are assessed for red blood cell (RBC) uptake, using a modified procedure based on the protocol reported in Sun, J. X. S., et al. High-performance liquid chromatographic analysis, plasma protein binding and red blood cell partitioning of phenprobamate. Biopharmaceutics and Drug Disposition, 8 (1987) 341-351.
# (§2) Briefly, RBC uptake is evaluated by comparison of the levels in spiked plasma (n=3) and plasma isolated from spiked whole blood (n=3). Compounds are incubated with human and mouse whole blood, respectively, for 30 minutes at 37° C. using a nominal concentration of 500 ng/ml. Following centrifugation, the plasma is removed and submitted for analysis. Each compound is also spiked into blank plasma at a nominal concentration of 500 ng/ml, and submitted for analysis. Levels in the two plasma samples (Cp′ and Cp in the equation below) and the blood hematocrit are used to determine the red blood cell to plasma ratio (Crbc/Cp). [formula] In equation 1, Cp′ is the level of drug in the spiked “blank” plasma, Cp is the level of drug in the plasma of spiked whole blood, and H is the hematocrit. The hematocrit values are determined as 0.4 for human whole blood and 0.41 for mouse whole blood. The samples are analyzed with ESI LC/MS, using positive ion detection with an internal standard.
# (§3) The red blood cell to plasma ratio is determined for each compound using equation 1. Tables 6 and 7 summarize the respective mean Crbc/Cp values and standard deviations for mouse and human whole blood, respectively, in descending order based on the red blood cell to plasma ratio, where “*” denotes Positive Control, and “ND” denotes Not Determined. MDL 108552 is included as a positive control for red blood cell uptake.
# [3] = Red blood cell binding (RBC to plasma ratio), mouse whole blood; assay type: in vitro ADME; details: 30 minutes at 37° C., nominal 500 ng/ml, hematocrit 0.41
# Method: as §1, §2, §3
# PC-3 = assay: In vitro proliferation assay (MTT), PC-3; assay type: cell-based, human
# Method: (§4) The proliferation of tumor cells can be measured using a tetrazolium salt-based assay known as the MTT (3-[4,5-Dimethylthiazol-2-yl]-2,5-diphenyltetrazolium bromide) assay. […] For the assay, the cell lines are plated onto 96 well plates at 1000 to 2500 cells/well (depending on the properties of the individual cell lines), left to attach and recover overnight. […] After 3 days, the cells are incubated with MTT dye (3-[4,5-Dimethylthiazol-2-yl]-2,5-diphenyltetrazolium bromide, Sigma #M5655, 10 mg/ml in Hank's Buffered Saline) to estimate the amount of live cells remaining vs. concentration for the test compounds. […] The MTT and culture medium is then removed from the cultures and 200 μl of DMSO is added to solubilize the dye from the cell layer. The absorbance at 570 nm is determined for each culture using a Spectramax plate reader (Molecular Devices).
# (§5) IC50s were determined from the raw data from either the MTT or SRB assays.
# (§6) All of the cell lines were obtained from American Type Tissue Collection, with the ATCC accession number in parentheticals. MCF-7 and MDA-MB-231 cells were grown in improved minimum essential medium (Biofluids) without phenol red, supplemented with 5% fetal bovine serum, 0.01 mg/ml gentamicin and 3 mM L-glutamine.
# cortical neurons = details: Park et al. 1997; cited from earlier work
# [4] = tested on: PC12 cells, or rat sympathetic neurons; details: PC12 cells / sympathetic neurons; Park et al. 1997; cited from earlier work
# cdk2/cyclin E = cdk2/cyclin E (Homo sapiens, UniProt P24941); assay: Cyclin-dependent kinase assay, cdk2/cyclin E (GST-pRb substrate); details: read-out: CDK2 IC50; inhibition of cyclin E/CDK 2 enzyme activity
# Method: as §7
# The cdk2 sequence (accession number X62071) is amplified by PCR and cloned into the SpeI and XhoI sites of pFASTBAC1 (Life Technologies). […] This primer would anneal in the 3′ untranslated sequence.
# The cyclin E sequence (accession number M73812) is amplified by PCR and cloned into the XbaI and XhoI sites of pFASTBAC1 (Life Technologies).
# as §8, §9, §10, §11
# The kinase reactions are performed following a standard procedure. […]
# The transformed bacteria are grown overnight to saturation, then diluted in YT broth and incubated at 37° C. for 2 h. […] The beads are washed with kinase buffer and then quantitated of Coomassie blue-stained proteins separated by SDS-PAGE using a protein standard of known concentration.
# MDA-MB-435 = assay: In vitro proliferation assay (MTT), MDA-MB-435; assay type: cell-based, human; details: mean (SD, n) where given, read-out: MB-435 Breast (IC50 μM)
# Method: as §4, §5, §6
compound,measurement,setting,value
"NC1CCC(Nc2nc(NC3CCN(C(=O)[C@@H]4C[C@H]4c4ccccc4)CC3)c3ncn(C4CCCC4)c3n2)CC1 (mixture of isomers) [Compound 43, (±)-trans-1-{4-[2-(4-Amino-cyclohexylamino)-9-cyclopentyl-9H-purin-6-ylamino]-piperidin-1-yl}-1-(2-phenyl-cyclopropyl)-methanone dihydrochloride]",IC50,cdk4/cyclin D1,293 nM
same,IC50,cdk1/cyclin B,51 nM
"CCCCc1ccc(C(=O)N2CCC(Nc3nc(N[C@H]4CC[C@H](N)CC4)nc4c3ncn4C3CCCC3)CC2)cc1 [Compound 21, trans-1-{4-[2-(4-Amino-cyclohexylamino)-9-cyclopentyl-9H-purin-6-ylamino]-piperidin-1-yl}-1-(4-butyl-phenyl)-methanone]",IC50,cdk4/cyclin D1,476 nM
same,IC50,cdk1/cyclin B,89 nM
"CC(C)=CC(=O)N1CCC(Nc2nc(N[C@H]3CC[C@H](N)CC3)nc3c2ncn3C2CCCC2)CC1 [Compound 30, trans 1-{4-[2-(4-Amino-cyclohexylamino)-9-cyclopentyl-9#H!-purin-6-ylamino]-piperidin-1-yl}-3-methyl-but-2-en-1-one dihydrochloride]",IC50,cdk4/cyclin D1,683 nM
same,IC50,cdk1/cyclin B,25 nM
"N[C@H]1CC[C@H](Nc2nc(NC3CCN(C(=O)/C=C/c4cccc(C(F)(F)F)c4)CC3)c3ncn(C4CCCC4)c3n2)CC1 [Compound 44, trans-(E)-1-{4-[2-(4-Amino-cyclohexylamino)-9-cyclopentyl-9H-purin-6-ylamino]-piperidin-1-yl}-3-(3-trifluoromethyl-phenyl)-propenone dihydrochloride]",IC50,cdk4/cyclin D1,1490 nM
same,IC50,cdk1/cyclin B,129 nM
"N[C@H]1CC[C@H](Nc2nc(NC3CCN(C(=O)/C=C/c4ccccc4)CC3)c3ncn(C4CCCC4)c3n2)CC1 [Compound 62, trans-(E)-1-{4-[2-(4-Amino-cyclohexylamino)-9-cyclopentyl-9H-purin-6-ylamino]-piperidin-1-yl}-3-phenyl-propenone dihydrochloride]",IC50,cdk4/cyclin D1,167 nM
same,IC50,cdk1/cyclin B,25 nM
"Cc1ccc(OC(=O)N2CCC(Nc3nc(N[C@H]4CC[C@H](N)CC4)nc4c3ncn4C3CCCC3)CC2)cc1.Cl.Cl [Compound 82, trans-4-[2-(4-Amino-cyclohexylamino)-9-cyclopentyl-9H-purin-6-ylamino]-piperidine-1-carboxylic acid p-tolyl ester dihydrochloride]",Mean Conc. in plasma,"[1]; Cassette #4, single 15 mg/kg iv cassette dose (3 mg/kg/compound), 0.083 h",1458.0 ± 77.4 ng/mL
same,Mean Conc. in plasma,"[1]; Cassette #4, single 15 mg/kg iv cassette dose (3 mg/kg/compound), 0.25 h",875.3 ± 96.7 ng/mL
same,Mean Conc. in plasma,"[1]; Cassette #4, single 15 mg/kg iv cassette dose (3 mg/kg/compound), 0.5 h",369.6 ± 40.0 ng/mL
same,Mean Conc. in plasma,"[1]; Cassette #4, single 15 mg/kg iv cassette dose (3 mg/kg/compound), 1 h",133.7 ± 16.3 ng/mL
same,Mean Conc. in plasma,"[1]; Cassette #4, single 15 mg/kg iv cassette dose (3 mg/kg/compound), 3 h",37.5 ± 10.7 ng/mL
same,Mean Conc. in plasma,"[1]; Cassette #4, single 15 mg/kg iv cassette dose (3 mg/kg/compound), 6 h",14.5 ± 3.4 ng/mL
same,Mean Conc. in plasma,"[1]; Cassette #4, single 15 mg/kg iv cassette dose (3 mg/kg/compound), 8 h",12.3 ± 2.2 ng/mL
same,Mean Conc. in plasma,"[1]; Cassette #4, single 15 mg/kg iv cassette dose (3 mg/kg/compound), 24 h",BLQ
same,Cls,"[1]; mouse plasma, iv Cassette #4, 3 mg/kg/compound (15 mg/kg total dose)",53.0 mL/min/kg
same,HL60 Mean Vol. ± SD,HL-60 human leukemia,5164 ± 5516
same,Mean Red Blood Cell to Plasma Ratio,[2],5.8
"Cl.Cl.N[C@H]1CC[C@H](Nc2nc(NC3CCN(C(=O)Oc4ccc(F)cc4)CC3)c3ncn(C4CCCC4)c3n2)CC1 [Compound 87, trans-4-[2-(4-Amino-cyclohexylamino)-9-cyclopentyl-9H-purin-6-ylamino]-piperidine-1-carboxylic acid 4-fluoro-phenyl ester dihydrochloride]",Mean Red Blood Cell to Plasma Ratio,[3],3.4
same,Mean Conc. in plasma,"[1]; Cassette #3, single 15 mg/kg iv cassette dose (3 mg/kg/compound), 0.083 h",1171.4 ± 153.4 ng/mL
same,Mean Conc. in plasma,"[1]; Cassette #3, single 15 mg/kg iv cassette dose (3 mg/kg/compound), 0.25 h",371.9 ± 35.9 ng/mL
same,Mean Conc. in plasma,"[1]; Cassette #3, single 15 mg/kg iv cassette dose (3 mg/kg/compound), 0.5 h",141.4 ± 9.5 ng/mL
same,Mean Conc. in plasma,"[1]; Cassette #3, single 15 mg/kg iv cassette dose (3 mg/kg/compound), 1 h",65.0 ± 14.0 ng/mL
same,Mean Conc. in plasma,"[1]; Cassette #3, single 15 mg/kg iv cassette dose (3 mg/kg/compound), 3 h",19.2 ± 6.0 ng/mL
same,Mean Conc. in plasma,"[1]; Cassette #3, single 15 mg/kg iv cassette dose (3 mg/kg/compound), 6 h",4.3 ± 0.7 ng/mL
same,Mean Conc. in plasma,"[1]; Cassette #3, single 15 mg/kg iv cassette dose (3 mg/kg/compound), 8 h",3.2 ± 1.6 ng/mL
same,Mean Conc. in plasma,"[1]; Cassette #3, single 15 mg/kg iv cassette dose (3 mg/kg/compound), 24 h",BLQ^a
same,Mean Red Blood Cell to Plasma Ratio,[2],8.4
same,IC50,"PC-3; Homo sapiens, PC-3, read-out: PC-3 Prostate (IC50 μM)",0.16 µM
"N[C@H]1CC[C@H](Nc2nc(NC3CCN(S(=O)(=O)c4cccs4)CC3)c3ncn(C4CCCC4)c3n2)CC1 [Compound 128, trans-N^2&-(4-Amino-cyclohexyl)-9-cyclopentyl-N^6-[1-(thiophene-2-sulfonyl)-piperidin-4-yl]-9H-purine-2,6-diamine dihydrochloride]",IC50,cdk4/cyclin D1,5 nM
same,IC50,cdk1/cyclin B,9 nM
Cn1cnc2nc(NCCO)nc(NCc3ccccc3)c21 [iso-olomoucine],prevention of cell death of camptothecin-treated neuronal cells,cortical neurons,failed to prevent the cell death
same,prevention of cell death of camptothecin-treated neuronal cells,[4],failed to prevent the cell death
trans-3-{4-[2-(4-Amino-cyclohexylamino)-9-cyclopentyl-9H-purin-6-ylamino]-piperidine-1-sulfonyl}-benzoic acid methyl ester dihydrochloride [Compound 135],IC50,cdk2/cyclin E,4 nM
same,IC50,cdk4/cyclin D1,62 nM
same,IC50,"cdk1/cyclin B; read-out: CDK1 IC50, inhibition of cyclin B/CDK 1 enzyme activity",80 nM
same,IC50,MDA-MB-435,3.38 µM
same,IC50,"PC-3; MTT assay, mean (SD, n) where given, read-out: PC-3 Prostate (IC50 μM)",4.05 µM
